These results are taken from paper PMC2880888 (Journal of medicinal chemistry, 2010).

In data set [1] the test system is control 1321N1 astrocytoma cells. The data set is described as follows: calcium flux in control 1321N1 astrocytoma cells. The data set is classed as cell-based, human. As to conditions: 10 µM, non-transfected 1321N1 astrocytoma cells. Background: Calcium flux is commonly read through the fluorescence of an indicator in the cells.
Another data set concerns CSQ-overexpressing mouse. Particulars: Alzet mini-osmotic pump; cited from earlier work.
The next data set relates to cardiac P2X receptor. Particulars: cited from earlier work.
Data set [2] in a line: stability of the C-O-P bond in aqueous medium at pH 1.5. It is filed as physicochemical. Particulars: aqueous medium at pH 1.5, over 24 h.
A further data set relates to aorta ring preparations. As to conditions: cited from earlier work.
Data set [3] in a line: hydrolysis of the 5’-phosphate in the presence of mammalian cell membranes. Particulars: incubation at 37°C with 1321N1 astrocytoma cell membranes (data not shown). The data set is classed as in vitro ADME.

With `CSc1nc(N)c2ncn([C@@H]3O[C@H](COP(=O)(O)OP(=O)(O)O)[C@@H](O)[C@H]3O)c2n1` [Compound 2-MeSADP, 2-MeSADP], the “change in intracellular Ca2+ in control cells” value in data set [1] is “no change”.

Regarding `Nc1nc(Cl)nc2c1ncn2[C@H]1[C@H](O)[C@H](O)[C@@]2(COP(=O)(O)O)C[C@H]12` [Compound 3, (1’S,2’R,3’S,4’R,5’S)-4-(6-amino-2-chloro-9H-purin-9-yl)-1-[phosphoryloxymethyl] bicyclo[3.1.0]hexane-2,3-diol], the “longevity compared to vehicle-injected mice” value in the data set on CSQ-overexpressing mouse is listed as “significantly increased longevity”. Besides, the “current induced in the CSQ myocyte” value with cardiac P2X receptor (CSQ myocyte) is listed as “induced a current”. Also, the “stability of the C-O-P bond” value in data set [2] is recorded as “stable”. Further, the vasodilator action entry in the data set with aorta ring preparations is given as “devoid of any vasodilator action”. The “hydrolysis of the 5’-phosphate” value in data set [3] is on record as “considerable hydrolysis”.

For the molecule `CNc1nc(I)nc2c1ncn2[C@H]1C[C@H](OP(=O)(O)O)[C@]2(COP(=O)(O)O)C[C@H]12` [MRS2500], the “block of the membrane current evoked by 3” value with cardiac P2X receptor (voltage clamp in mouse cardiac myocytes) is “could not block”.
